Measurements published in ChEMBL document CHEMBL3526141, “Characterization of human liver enzymes involved in the biotransformation of boceprevir, a hepatitis C virus protease inhibitor” (Drug Metab Dispos, 2011).
Each block holds one molecule with its values, some of them ahead of it.

Legend:
[1] = biological target: T1, Cytochrome P450 4F3 (Homo sapiens, UniProt Q08477); experiment: Drug metabolism assessed as human CYP4F3A-mediated compound formation from 5 uM [14C]boceprevir after 120 mins by LC-MS/FSA method relative to total [14C]boceprevir; type: ADME; conditions: recombinant enzyme, 2 h
T1 sequence (Q08477 whole entry): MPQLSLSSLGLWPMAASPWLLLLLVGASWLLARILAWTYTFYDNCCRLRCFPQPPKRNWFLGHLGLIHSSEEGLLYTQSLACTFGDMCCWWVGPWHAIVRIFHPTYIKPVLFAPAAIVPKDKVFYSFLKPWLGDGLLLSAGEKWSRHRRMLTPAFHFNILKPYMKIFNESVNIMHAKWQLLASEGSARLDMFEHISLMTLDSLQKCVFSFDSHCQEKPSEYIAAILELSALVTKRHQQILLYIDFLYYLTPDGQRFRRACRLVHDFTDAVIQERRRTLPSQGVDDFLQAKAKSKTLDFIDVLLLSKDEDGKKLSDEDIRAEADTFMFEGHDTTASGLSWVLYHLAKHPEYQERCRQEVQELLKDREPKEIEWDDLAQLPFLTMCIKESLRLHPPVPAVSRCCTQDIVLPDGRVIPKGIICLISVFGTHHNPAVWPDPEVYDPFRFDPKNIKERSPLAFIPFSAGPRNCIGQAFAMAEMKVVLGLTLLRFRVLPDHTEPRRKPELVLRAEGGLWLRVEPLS

[2] = biological target: T2, Cytochrome P450 2B6 (Homo sapiens, UniProt P20813); experiment: Drug metabolism assessed as human CYP2B6-mediated compound formation from 5 uM [14C]boceprevir after 120 mins by LC-MS/FSA method relative to total [14C]boceprevir; type: ADME; conditions: recombinant enzyme, 2 h
T2 sequence (P20813 whole entry): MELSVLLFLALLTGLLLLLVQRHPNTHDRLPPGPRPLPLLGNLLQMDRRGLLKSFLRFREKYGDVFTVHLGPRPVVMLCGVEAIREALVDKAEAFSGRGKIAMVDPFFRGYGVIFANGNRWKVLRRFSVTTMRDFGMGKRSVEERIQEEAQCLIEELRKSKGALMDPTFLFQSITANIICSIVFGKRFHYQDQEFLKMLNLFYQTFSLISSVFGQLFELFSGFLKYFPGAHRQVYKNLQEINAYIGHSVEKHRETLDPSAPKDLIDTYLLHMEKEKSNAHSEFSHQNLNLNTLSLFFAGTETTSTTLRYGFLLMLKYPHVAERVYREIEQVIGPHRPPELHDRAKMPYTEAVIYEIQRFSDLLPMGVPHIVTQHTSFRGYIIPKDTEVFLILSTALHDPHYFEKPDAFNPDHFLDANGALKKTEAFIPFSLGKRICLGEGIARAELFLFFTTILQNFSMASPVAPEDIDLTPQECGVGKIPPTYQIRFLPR

[3] = Retention time of the compound by LC-MS/MS method; type: physicochemical
[4] = biological target: T3, Cytochrome P450 3A5 (Homo sapiens, UniProt P20815); experiment: Drug metabolism assessed as human CYP3A5-mediated compound formation from 5 uM [14C]boceprevir after 120 mins by LC-MS/FSA method relative to total [14C]boceprevir; type: ADME; conditions: recombinant enzyme, 2 h
T3 sequence (P20815 whole entry): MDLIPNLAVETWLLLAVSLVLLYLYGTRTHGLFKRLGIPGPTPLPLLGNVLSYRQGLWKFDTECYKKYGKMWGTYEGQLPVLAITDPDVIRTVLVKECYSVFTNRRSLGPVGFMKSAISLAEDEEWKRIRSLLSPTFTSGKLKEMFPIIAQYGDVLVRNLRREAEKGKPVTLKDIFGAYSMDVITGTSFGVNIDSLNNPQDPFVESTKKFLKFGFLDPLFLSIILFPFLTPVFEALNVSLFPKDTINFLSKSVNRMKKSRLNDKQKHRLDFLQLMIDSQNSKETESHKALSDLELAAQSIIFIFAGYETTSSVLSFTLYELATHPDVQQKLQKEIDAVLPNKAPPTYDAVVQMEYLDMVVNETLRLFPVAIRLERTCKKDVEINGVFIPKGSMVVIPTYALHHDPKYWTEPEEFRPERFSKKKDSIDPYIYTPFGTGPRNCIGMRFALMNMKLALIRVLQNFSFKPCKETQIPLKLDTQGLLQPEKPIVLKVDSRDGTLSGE

[5] = biological target: T4, Cytochrome P450 3A4 (Homo sapiens, UniProt P08684); experiment: Drug metabolism assessed as human CYP3A4-mediated compound formation from 20 uM [14C]boceprevir after 120 mins by LC-MS/FSA method relative to total [14C]boceprevir; type: ADME; conditions: recombinant enzyme, 2 h
T4 sequence (P08684 whole entry): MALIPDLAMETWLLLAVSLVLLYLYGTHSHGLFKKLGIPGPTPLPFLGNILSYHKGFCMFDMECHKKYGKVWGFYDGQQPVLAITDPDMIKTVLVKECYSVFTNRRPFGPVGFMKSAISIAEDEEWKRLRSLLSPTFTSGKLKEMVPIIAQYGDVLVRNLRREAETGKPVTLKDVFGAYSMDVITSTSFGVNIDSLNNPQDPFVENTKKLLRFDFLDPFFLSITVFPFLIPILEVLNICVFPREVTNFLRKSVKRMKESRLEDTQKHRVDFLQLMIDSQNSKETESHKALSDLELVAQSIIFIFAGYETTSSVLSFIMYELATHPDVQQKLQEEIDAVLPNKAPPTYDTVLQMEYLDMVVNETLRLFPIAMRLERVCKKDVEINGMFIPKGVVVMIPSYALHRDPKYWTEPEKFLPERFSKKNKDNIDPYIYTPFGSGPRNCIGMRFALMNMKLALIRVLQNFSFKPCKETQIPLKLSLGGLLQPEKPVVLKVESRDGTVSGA

[6] = biological target: T5, Cytochrome P450 1A1 (Homo sapiens, UniProt P04798); experiment: (§1) Drug metabolism assessed as human […]-mediated compound formation from 5 uM [14C]boceprevir after 120 mins by LC-MS/FSA method relative to total [14C]boceprevir; type: ADME; conditions: recombinant enzyme, 2 h
T5 sequence (P04798 whole entry): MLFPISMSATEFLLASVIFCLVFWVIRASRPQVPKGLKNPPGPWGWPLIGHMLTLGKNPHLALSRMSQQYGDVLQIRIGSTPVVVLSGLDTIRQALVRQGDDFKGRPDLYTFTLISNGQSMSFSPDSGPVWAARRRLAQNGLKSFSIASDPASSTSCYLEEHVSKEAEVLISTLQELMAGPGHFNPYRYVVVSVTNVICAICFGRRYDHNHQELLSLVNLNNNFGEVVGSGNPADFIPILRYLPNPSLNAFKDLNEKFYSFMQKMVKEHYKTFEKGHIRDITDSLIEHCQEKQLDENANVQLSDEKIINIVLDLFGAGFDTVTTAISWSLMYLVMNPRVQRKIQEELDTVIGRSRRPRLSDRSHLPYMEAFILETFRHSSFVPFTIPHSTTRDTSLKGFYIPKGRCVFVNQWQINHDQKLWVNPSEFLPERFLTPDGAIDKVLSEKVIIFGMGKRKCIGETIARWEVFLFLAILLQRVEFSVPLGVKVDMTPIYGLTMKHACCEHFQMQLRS

[7] = biological target: T6, Cytochrome P450 1A2 (Homo sapiens, UniProt P05177); experiment: as §1; type: ADME; conditions: recombinant enzyme, 2 h
T6 sequence (P05177 whole entry): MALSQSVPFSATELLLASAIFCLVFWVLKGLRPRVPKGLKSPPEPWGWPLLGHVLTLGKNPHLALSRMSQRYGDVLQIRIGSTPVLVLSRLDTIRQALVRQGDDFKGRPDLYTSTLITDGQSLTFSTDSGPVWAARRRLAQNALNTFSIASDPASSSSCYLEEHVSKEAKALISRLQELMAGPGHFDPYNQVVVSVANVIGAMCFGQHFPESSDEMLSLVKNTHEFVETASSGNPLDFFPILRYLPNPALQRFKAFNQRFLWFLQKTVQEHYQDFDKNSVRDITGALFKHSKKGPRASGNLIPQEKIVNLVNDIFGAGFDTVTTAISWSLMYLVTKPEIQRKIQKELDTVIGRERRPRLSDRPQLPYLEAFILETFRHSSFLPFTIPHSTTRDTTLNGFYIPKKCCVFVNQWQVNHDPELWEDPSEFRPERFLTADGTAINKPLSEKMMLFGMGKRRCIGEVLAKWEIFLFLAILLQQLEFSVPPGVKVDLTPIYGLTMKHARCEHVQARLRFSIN

[8] = biological target: Cytochrome P450 2D6 (Homo sapiens, UniProt P10635); experiment: Drug metabolism assessed as human CYP2D6-mediated compound formation from 5 uM [14C]boceprevir after 120 mins by LC-MS/FSA method relative to total [14C]boceprevir; type: ADME; conditions: recombinant enzyme, 2 h
Chain of Cytochrome P450 2D6 (P10635 whole entry): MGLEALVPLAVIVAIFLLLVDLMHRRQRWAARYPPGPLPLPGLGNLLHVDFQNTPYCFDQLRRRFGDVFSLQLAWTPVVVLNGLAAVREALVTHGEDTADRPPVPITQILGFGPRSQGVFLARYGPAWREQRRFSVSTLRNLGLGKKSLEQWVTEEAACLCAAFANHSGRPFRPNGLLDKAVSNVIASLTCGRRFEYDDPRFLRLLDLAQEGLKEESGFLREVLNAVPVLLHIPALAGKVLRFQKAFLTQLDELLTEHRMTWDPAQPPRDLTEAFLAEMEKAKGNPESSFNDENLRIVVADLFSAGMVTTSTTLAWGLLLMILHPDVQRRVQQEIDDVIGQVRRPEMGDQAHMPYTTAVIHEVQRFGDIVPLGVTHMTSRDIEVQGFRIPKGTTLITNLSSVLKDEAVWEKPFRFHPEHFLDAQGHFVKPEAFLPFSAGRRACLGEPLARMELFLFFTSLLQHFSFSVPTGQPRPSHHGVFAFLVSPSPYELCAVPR

[9] = biological target: T3, Cytochrome P450 3A5; experiment: Drug metabolism assessed as human CYP3A5-mediated compound formation from 20 uM [14C]boceprevir after 120 mins by LC-MS/FSA method relative to total [14C]boceprevir; type: ADME; conditions: recombinant enzyme, 2 h
[10] = biological target: T4, Cytochrome P450 3A4; experiment: Drug metabolism assessed as human CYP3A4-mediated compound formation from 5 uM [14C]boceprevir after 120 mins by LC-MS/FSA method relative to total [14C]boceprevir; type: ADME; conditions: recombinant enzyme, 2 h
[11] = system: Plasma; experiment: Drug metabolism in human plasma treated with [14C]boceprevir assessed as ratio of drug level by LC-MS/MS method relative to boceprevir; type: ADME, cell-free
[12] = Drug metabolism in human liver S9 fraction treated with 20 uM assessed as compound formation in presence of NADPH generating system by LC-MS/MS/FSA method; type: ADME, subcellular
[13] = system: Liver cytosol; experiment: Drug metabolism in human liver cytosol treated with 20 uM assessed as compound formation in presence of NADPH generating system by LC-MS/MS/FSA method; type: ADME
[14] = system: Liver cytosol; experiment: Drug metabolism in human liver cytosol treated with 20 uM [14C]SCH 534129 assessed as 100 uM diazepam-mediated inhibition of metabolite formation LC-MS/MS/FSA method; type: ADME, tissue-based; set-up: interact cpd dose 100 uM
[15] = Drug metabolism in human liver mitochondria treated with 20 uM assessed as compound formation in presence of NADPH generating system by LC-MS/MS/FSA method; type: ADME
[16] = system: Liver cytosol; experiment: Drug metabolism in human liver cytosol treated with 20 uM [14C]SCH 534129 assessed as 1 mM ibuprofen-mediated inhibition of metabolite formation LC-MS/MS/FSA method; type: ADME, tissue-based; set-up: interact cpd dose 1 mM
[17] = substrate: CC(C)(C)NC(=O)N[C@H](C(=O)N1C[C@H]2[C@@H]([C@H]1C(=O)NC(CC1CCC1)C(=O)C(N)=O)C2(C)C)C(C)(C)C; experiment: Activity of human recombinant AKR1C2 expressed in HEK293 cells assessed as (1R,2S,5S)-N-((2S,3R)-4-amino-1-cyclobutyl-3-hydroxy-4-oxobutan-2-yl)-3-((S)-2-(3-tert-butylureido)-3,3-dimethylbutanoyl)-6,6-dimethyl-3-azabicyclo[3.1.0]hexane-2-carboxamide formation after 120 mins in presence of NADPH by LC-MS/MS/FSA method; type: ADME, cell-based

Compound recovery [1]: 0.61% | Compound recovery [2]: 2.06% | Retention_time [3]: 22.2 min | Compound recovery [4]: 15.74% | Compound recovery [5]: < 4.64% | Compound recovery [6]: 2.9% | Compound recovery [7]: 1.37% | Compound recovery [8]: 1.9% | Compound recovery [9]: 2.87% | Compound recovery [10]: < 3.45% | Compound recovery [11]: 10%
Molecule: CC(C)(C)NC(=O)N[C@H](C(=O)N1C[C@H]2[C@@H]([C@H]1C(N)=O)C2(C)C)C(C)(C)C

Retention_time [3]: 43.1 min | Compound recovery [12]: 32% | Compound recovery [13]: 32% | inhibition (INH) [14]: 78% | Compound recovery [15]: 32% | inhibition (INH) [16]: 63% | Compound recovery [11]: >= 50%
Molecule: CC(C)(C)NC(=O)N[C@H](C(=O)N1C[C@H]2[C@@H]([C@H]1C(=O)N[C@H](CC1CCC1)[C@@H](O)C(N)=O)C2(C)C)C(C)(C)C

B1: Aldo-keto reductase family 1 member C2 (Homo sapiens) (protein)
chain: MDSKYQCVKLNDGHFMPVLGFGTYAPAEVPKSKALEAVKLAIEAGFHHIDSAHVYNNEEQVGLAIRSKIADGSVKREDIFYTSKLWSNSHRPELVRPALERSLKNLQLDYVDLYLIHFPVSVKPGEEVIPKDENGKILFDTVDLCATWEAMEKCKDAGLAKSIGVSNFNHRLLEMILNKPGLKYKPVCNQVECHPYFNQRKLLDFCKSKDIVLVAYSALGSHREEPWVDPNSPVLLEDPVLCALAKKHKRTPALIALRYQLQRGVVVLAKSYNEQRIRQNVQVFEFQLTSEEMKAIDGLNRNVRYLTLDIFAGPPNYPFSDEY
Km [17]: 52.3 µM | Vmax [17]: 4.07e-05 µmol/min
